Source: US20080255206A1, “Rxr Agonists and Antagonists, Alone or in Combination with Ppar Ligands, in the Treatment of Metabolic and Cardiovascular Diseases” (priority 2005, published 2008)

Legend:
RXRα [1] = target: T1, RXRα (Homo sapiens, UniProt P19793); assay: Retinoid binding assay, RXRα; design: made in house; host or cells: E. coli; details: [3H] 9-cis retinoic acid 20 nM; read-out: Binding Affinity IC50 RXR α
T1 sequence (P19793 1-462): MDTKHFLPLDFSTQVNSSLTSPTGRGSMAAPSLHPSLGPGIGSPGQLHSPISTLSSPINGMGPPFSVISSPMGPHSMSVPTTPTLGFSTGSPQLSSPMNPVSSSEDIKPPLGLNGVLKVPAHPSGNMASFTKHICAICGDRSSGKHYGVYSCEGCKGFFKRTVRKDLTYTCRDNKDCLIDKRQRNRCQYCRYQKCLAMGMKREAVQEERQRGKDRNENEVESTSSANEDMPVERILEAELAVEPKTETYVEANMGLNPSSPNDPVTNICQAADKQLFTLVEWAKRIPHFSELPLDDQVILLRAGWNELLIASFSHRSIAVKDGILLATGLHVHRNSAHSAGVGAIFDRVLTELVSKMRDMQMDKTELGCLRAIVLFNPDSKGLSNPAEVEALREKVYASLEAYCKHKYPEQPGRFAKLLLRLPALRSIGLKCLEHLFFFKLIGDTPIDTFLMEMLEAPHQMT
Excerpt: (§1) The DEF domains of RAR's and the full length RXR's, expressed in E.coli, are used to measure competitive retinoid binding. […] 9-cis retinoic acid (for RXR's), respectively. […] Separation of bound from free radioactivity is achieved by charcoal/dextran (RAR's) or by desalting columns (RXR's). […] Retinoid Activation Assays

RARβ [2] = target: T2, RARβ (Homo sapiens, UniProt P10826); assay: Retinoid binding assay, RARβ; design: The DEF domains of RAR's and the full length RXR's, expressed in E.coli; made in house; host or cells: E. coli; details: read-out: Binding Affinity IC50 RAR β
T2 sequence (P10826 183-417 limits assumed): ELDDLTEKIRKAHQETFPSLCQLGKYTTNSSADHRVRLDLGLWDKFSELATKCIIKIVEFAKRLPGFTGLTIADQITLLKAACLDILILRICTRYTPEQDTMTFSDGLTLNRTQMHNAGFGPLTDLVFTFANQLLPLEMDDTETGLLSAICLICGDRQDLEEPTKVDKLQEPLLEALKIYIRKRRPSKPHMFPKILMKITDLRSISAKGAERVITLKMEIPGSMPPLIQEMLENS
Excerpt: as §1

RARα = target: T3, RARα (Homo sapiens, UniProt P10276); assay: Retinoid binding assay, RARα; design: The DEF domains of RAR's and the full length RXR's, expressed in E.coli; made in house; host or cells: E. coli; details: read-out: Binding Affinity IC50 RAR α
T3 sequence (P10276 183-417 limits assumed): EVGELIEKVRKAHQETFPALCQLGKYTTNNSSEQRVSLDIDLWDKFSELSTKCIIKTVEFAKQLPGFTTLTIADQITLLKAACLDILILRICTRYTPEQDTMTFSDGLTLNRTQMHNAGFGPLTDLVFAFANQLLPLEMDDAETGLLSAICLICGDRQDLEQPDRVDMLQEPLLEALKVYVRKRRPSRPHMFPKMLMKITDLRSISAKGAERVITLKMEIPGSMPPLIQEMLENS
Excerpt: as §1

RXRα [3] = target: T1, RXRα; assay: Retinoid activation assay, RXRα (Schneider SL-3 cells, luciferase reporter); type: cell-based; details: read-out: Activation EC50 RXR α
Method: (§2) Full length RXR cDNA is used for transfection. As reporter system, the luciferase gene is used in a construct with three copies of a RXR response element from rat CRBP gene, (formerly RARE from betaRAR gene), fused to alcoholdehydrogenase gene promoter in the plasmid pGL2-basic. Schneider SL-3 cells from Drosophila are transiently transfected 3-4 h before the experiment by the Ca-phosphate-DNA coprecipitation method. […] At the end of the incubation, the cell supernatants are assayed for luciferase activity. Results are given as EC50 (nM), the concentration leading to half-maximal activation.

RARγ = target: T4, RARγ (Homo sapiens, UniProt P13631); assay: Retinoid activation assay, RARγ (COS-1 cells, SeAP reporter); type: cell-based; details: read-out: Activation EC50 RAR γ
T4 sequence (P13631 185-454 limits assumed): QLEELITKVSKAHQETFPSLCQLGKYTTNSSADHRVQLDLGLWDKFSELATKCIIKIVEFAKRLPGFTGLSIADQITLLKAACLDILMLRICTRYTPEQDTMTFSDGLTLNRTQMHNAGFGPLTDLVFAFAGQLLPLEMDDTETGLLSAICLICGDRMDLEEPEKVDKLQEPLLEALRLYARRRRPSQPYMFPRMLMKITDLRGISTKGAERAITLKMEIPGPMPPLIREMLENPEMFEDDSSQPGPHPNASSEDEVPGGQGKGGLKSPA
Method: (§3) Chimeric RAR cDNAs are used for transfection which contain the DNA binding region of the estrogen receptor. As reporter system, the SeAp (secreted alkaline phosphatase) gene under control of the vitellogenin estrogen response element fused to the herpes simplex thymidinkinase promoter (vit-TK-SeAP) is used. The galactosidase expression vector pCH110 serves to correct for variation in transfection efficiency. […] At the end of the incubation, the cell supernatants are assayed for SeAP activity. Results are given as EC50 (nM), the concentration leading to half-maximal activation.

RARβ [4] = target: T2, RARβ; assay: Retinoid activation assay, RARβ (COS-1 cells, SeAP reporter); type: cell-based; details: read-out: Activation EC50 RAR β
Method: as §3

RXRβ = target: T5, RXRβ (Homo sapiens, UniProt P28702); assay: Retinoid activation assay, RXRβ (Schneider SL-3 cells, luciferase reporter); type: cell-based; details: read-out: Activation EC50 RXR β
T5 construct: Full length RXR cDNA is used for transfection; expressed in transfected cells; host or cells: Schneider SL-3 cells (Drosophila)
T5 sequence (P28702 1-533): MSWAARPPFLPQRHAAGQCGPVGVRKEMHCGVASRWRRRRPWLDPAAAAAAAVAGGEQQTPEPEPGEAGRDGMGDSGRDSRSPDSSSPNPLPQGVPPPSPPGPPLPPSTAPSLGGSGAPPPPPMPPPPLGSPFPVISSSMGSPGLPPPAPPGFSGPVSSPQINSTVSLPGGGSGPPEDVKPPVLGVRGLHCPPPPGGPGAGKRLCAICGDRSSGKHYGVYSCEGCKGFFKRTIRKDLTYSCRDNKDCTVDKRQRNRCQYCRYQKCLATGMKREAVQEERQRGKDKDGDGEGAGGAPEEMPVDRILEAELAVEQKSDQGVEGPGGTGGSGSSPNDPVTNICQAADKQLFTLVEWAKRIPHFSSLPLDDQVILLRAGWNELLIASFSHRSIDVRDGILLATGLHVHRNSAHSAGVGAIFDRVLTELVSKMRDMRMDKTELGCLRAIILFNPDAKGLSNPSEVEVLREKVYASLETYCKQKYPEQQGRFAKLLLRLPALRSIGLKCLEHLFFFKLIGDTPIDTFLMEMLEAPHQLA
Method: as §2

CCCCOc1c([C@@H]2C[C@@H]2/C=C/C(C)=C/C(=O)O)cc(C(C)(C)C)cc1C(C)(C)C (racemic) [Compound 16, (2E,4E)-(1RS,2RS)-5-[2-(3,5-Di-tert-butyl-2-butoxy-phenyl)-cyclopropyl]-3-methyl-penta-2,4-dienoic acid]
IC50 (RXRα [1]): 65 nM
IC50 (RARβ [2]): > 10000 nM
IC50 (RARα): > 10000 nM
EC50 (RXRα [3]): ≥ 10000 nM

CC1=C(/C=C/C2=C(/C=C/C(C)=C/C(=O)O)CCCCC2)C(C)(C)CCC1 [Compound 1, (2E,4E)-3-methyl-5-[2-[(E)-2-(2,6,6-trimethyl-1-cyclohexen-1-yl)ethenyl]-1-cyclohepten-1-yl]-2,4-pentadienoic acid]
IC50 (RXRα [1]): 110 nM
IC50 (RARβ [2]): > 10000 nM
IC50 (RARα): > 10000 nM
EC50 (RXRα [3]): 1.4 nM

CC(/C=C/c1sccc1-c1ccc2c(c1)C(C)(C)CCC2(C)C)=C\C(=O)O [Compound 9]
EC50 (RARγ): 890 nM
IC50 (RXRα [1]): 230 nM
IC50 (RARβ [2]): 3800 nM
IC50 (RARα): 3400 nM
EC50 (RARβ [4]): 360 nM
EC50 (RXRα [3]): 2.5 nM

CC1=C(/C=C/c2sccc2/C=C/C(C)=C/C(=O)O)C(C)(C)CCC1 [Compound 5, (2E,4E)-3-Methyl-5-[2-[(E)-2-(2,6,6-trimethyl-1-cyclohexen-1-yl)ethenyl]-3-thienyl]-2,4-pentadienoic acid]
EC50 (RXRβ): 50 nM
EC50 (RARγ): 170 nM
IC50 (RXRα [1]): 150 nM
IC50 (RARβ [2]): 1000 nM
IC50 (RARα): 1600 nM
EC50 (RARβ [4]): 85 nM
EC50 (RXRα [3]): 0.8 nM

CC(/C=C/c1ccccc1-c1ccc2c(c1)C(C)(C)CCC2(C)C)=C\C(=O)O [Compound 7, (2E,4E)-3-methyl-5-[2-(5,5,8,8-tetramethyl-5,6,7,8-tetrahydro-naphthalen-2-yl)-phenyl]-penta-2,4-dienoic acid]
EC50 (RXRβ): 330 nM
IC50 (RXRα [1]): 780 nM
IC50 (RARβ [2]): > 10000 nM
IC50 (RARα): > 10000 nM
EC50 (RXRα [3]): 6 nM

CC1=C(/C=C/C2=C(/C=C/C(C)=C/C(=O)O)CCC2)C(C)(C)CCC1 [Compound 14, (2E,4E)-3-Methyl-5-[2-[(E)-2-(2,6,6-trimethyl-1-cyclohexen-1-yl)ethenyl]-1-cyclopenten-1-yl]-2,4-pentadienoic acid]
EC50 (RXRβ): 270 nM
EC50 (RARγ): 150 nM
IC50 (RXRα [1]): 110 nM
EC50 (RARβ [4]): 90 nM
EC50 (RXRα [3]): 6 nM

CC(/C=C/C1=C(c2ccc3c(c2)C(C)(C)CCC3(C)C)CCC1)=C\C(=O)O [Compound 12, (2E,4E)-3-Methyl-5-[2-(5,5,8,8-tetramethyl-5,6,7,8-tetrahydro-naphthalen-2-yl)-cyclopent-1-enyl]-penta-2,4-dienoic acid]
EC50 (RXRβ): 60 nM
EC50 (RARγ): 200 nM
IC50 (RXRα [1]): 80 nM
IC50 (RARβ [2]): 2500 nM
IC50 (RARα): 3500 nM
EC50 (RARβ [4]): 84 nM
EC50 (RXRα [3]): 9 nM

CCOc1c(\C(C)=C/C=C/C(C)=C/C(=O)O)cc(C(C)(C)C)cc1C(C)(C)C [Compound 21, (2E,4E,6Z)-7-[3,5-Bis(1,1-dimethylethyl)-2-ethoxyphenyl]-3-methyl-2,4,6-octatrienoic acid/ethyl ester]
IC50 (RXRα [1]): 24 nM
IC50 (RARβ [2]): > 10000 nM
IC50 (RARα): > 10000 nM
EC50 (RXRα [3]): ≥ 10000 nM

C/C(=C/C=C/C(C)=C/C(=O)O)c1cc2c(cc1C)C(C)(C)CCCC2 [Compound 13, (2E,4E,6Z)-3-Methyl-7-(3,5,5,-trimethyl-6,7,8,9-tetrahydro-5H-benzocyclohepten-2-yl)-octa-2,4,6-trienoic acid]
EC50 (RXRβ): 77 nM
IC50 (RXRα [1]): 184 nM
IC50 (RARα): 6500 nM
EC50 (RXRα [3]): 1.5 nM

CC1=C(C#CC2=C(/C=C/C(C)=C/C(=O)O)CCCCC2)C(C)(C)CCC1 [Compound 18]
EC50 (RXRβ): ≥ 10000 nM
IC50 (RXRα [1]): 95 nM
IC50 (RARβ [2]): > 10000 nM
IC50 (RARα): > 10000 nM
EC50 (RXRα [3]): ≥ 10000 nM

CCOc1c([C@@H]2C[C@@H]2/C=C/C(C)=C/C(=O)O)cc(C(C)(C)C)cc1C(C)(C)C (racemic) [Compound 17, (2E,4E)-(1RS,2RS)-5-[2-(3,5-Di-tert-butyl-2-ethoxy-phenyl)-cyclopropyl]-3-methyl-penta-2,4-dienoic acid]
IC50 (RXRα [1]): 49 nM
IC50 (RARβ [2]): > 10000 nM
IC50 (RARα): > 10000 nM
EC50 (RXRα [3]): ≥ 10000 nM

CC(/C=C/C1=C(c2ccc3c(c2)C(C)(C)CCC3(C)C)CCCC1)=C\C(=O)O [Compound 6, (2E,4E)-3-Methyl-5-[2-(5,5,8,8-tetramethyl-5,6,7,8-tetrahydro-naphthalen-2-yl)-cyclohex-1-enyl]-penta-2,4-dienoic acid]
EC50 (RXRβ): 1850 nM
IC50 (RXRα [1]): 330 nM
IC50 (RARβ [2]): > 10000 nM
IC50 (RARα): > 10000 nM
EC50 (RXRα [3]): 19 nM

CCCCOc1c(\C(C)=C/C=C/C(C)=C/C(=O)O)cc(C(C)(C)C)cc1C(C)(C)C [Compound 15, (2E,4E,6Z)-7-[2-butoxy-3,5-bis(1,1-dimethylethyl)phenyl]-3-methyl-2,4,6-octatrienoic acid]
IC50 (RXRα [1]): 30 nM
IC50 (RARβ [2]): > 10000 nM
IC50 (RARα): 4200 nM
EC50 (RXRα [3]): ≥ 10000 nM

CC(/C=C/[C@@H]1C[C@@H]1c1ccc2c(c1)C(C)(C)CCC2(C)C)=C\C(=O)O (racemic) [Compound 4, (2E,4E)-3-methyl-5-[(1RS,2RS)-2-(5,5,8,8-tetramethyl-5,6,7,8-tetrahydro-naphthalen-2-yl)-cyclopropyl]-penta-2,4-dienoic acid]
EC50 (RARγ): 1000 nM
IC50 (RXRα [1]): 84 nM
IC50 (RARβ [2]): > 10000 nM
IC50 (RARα): > 10000 nM
EC50 (RARβ [4]): 1200 nM
EC50 (RXRα [3]): 3.5 nM
